The values that follow come from paper PMC8617627, “Novel DYRK1A Inhibitor Rescues Learning and Memory Deficits in a Mouse Model of Down Syndrome” (Pharmaceuticals, 2021).

Common to all, as to experiment: Kinase profile (33P ATP filter binding)
Holding throughout (assay type): biochemical
Holding throughout (settings): read-out: Remaining protein kinase activity

Assay [1] has as its target PIM1 (Homo sapiens, UniProt P11309).
Assay [2] addresses PDGFRA (Homo sapiens, UniProt P16234).
The target of assay [3] is T1, PKD1 (Homo sapiens, UniProt Q15139).
T1 sequence (Q15139 1-912): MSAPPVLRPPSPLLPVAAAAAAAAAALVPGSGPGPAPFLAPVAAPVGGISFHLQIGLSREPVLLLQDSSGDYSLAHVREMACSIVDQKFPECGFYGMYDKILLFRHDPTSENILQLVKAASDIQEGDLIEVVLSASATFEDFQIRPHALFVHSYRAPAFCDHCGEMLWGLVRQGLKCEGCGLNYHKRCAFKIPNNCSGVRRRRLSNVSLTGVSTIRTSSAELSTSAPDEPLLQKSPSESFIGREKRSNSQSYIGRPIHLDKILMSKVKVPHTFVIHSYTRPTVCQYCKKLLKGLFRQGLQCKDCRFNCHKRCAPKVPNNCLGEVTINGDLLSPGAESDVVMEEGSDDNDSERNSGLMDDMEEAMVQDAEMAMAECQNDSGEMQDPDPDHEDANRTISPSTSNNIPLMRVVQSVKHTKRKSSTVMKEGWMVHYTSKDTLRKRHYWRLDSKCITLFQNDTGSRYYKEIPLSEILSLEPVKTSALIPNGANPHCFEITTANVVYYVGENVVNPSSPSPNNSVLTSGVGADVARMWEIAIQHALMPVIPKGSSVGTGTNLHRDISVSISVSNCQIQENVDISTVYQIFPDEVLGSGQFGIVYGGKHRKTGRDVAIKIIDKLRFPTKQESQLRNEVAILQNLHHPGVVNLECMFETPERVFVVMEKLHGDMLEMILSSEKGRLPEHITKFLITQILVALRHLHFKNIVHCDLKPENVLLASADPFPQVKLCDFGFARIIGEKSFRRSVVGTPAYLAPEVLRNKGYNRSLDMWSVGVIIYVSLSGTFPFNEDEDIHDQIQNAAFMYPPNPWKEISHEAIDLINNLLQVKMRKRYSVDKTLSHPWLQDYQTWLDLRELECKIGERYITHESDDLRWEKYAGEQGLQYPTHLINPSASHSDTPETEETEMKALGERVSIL

Assay [4] deals with ERK1 (Homo sapiens, UniProt P27361).
Assay [5] concerns the target PKCa (Homo sapiens, UniProt P17252).
Assay [6] concerns the target T2, TBK1 (Homo sapiens, UniProt Q9UHD2).
T2 sequence (Q9UHD2 1-729): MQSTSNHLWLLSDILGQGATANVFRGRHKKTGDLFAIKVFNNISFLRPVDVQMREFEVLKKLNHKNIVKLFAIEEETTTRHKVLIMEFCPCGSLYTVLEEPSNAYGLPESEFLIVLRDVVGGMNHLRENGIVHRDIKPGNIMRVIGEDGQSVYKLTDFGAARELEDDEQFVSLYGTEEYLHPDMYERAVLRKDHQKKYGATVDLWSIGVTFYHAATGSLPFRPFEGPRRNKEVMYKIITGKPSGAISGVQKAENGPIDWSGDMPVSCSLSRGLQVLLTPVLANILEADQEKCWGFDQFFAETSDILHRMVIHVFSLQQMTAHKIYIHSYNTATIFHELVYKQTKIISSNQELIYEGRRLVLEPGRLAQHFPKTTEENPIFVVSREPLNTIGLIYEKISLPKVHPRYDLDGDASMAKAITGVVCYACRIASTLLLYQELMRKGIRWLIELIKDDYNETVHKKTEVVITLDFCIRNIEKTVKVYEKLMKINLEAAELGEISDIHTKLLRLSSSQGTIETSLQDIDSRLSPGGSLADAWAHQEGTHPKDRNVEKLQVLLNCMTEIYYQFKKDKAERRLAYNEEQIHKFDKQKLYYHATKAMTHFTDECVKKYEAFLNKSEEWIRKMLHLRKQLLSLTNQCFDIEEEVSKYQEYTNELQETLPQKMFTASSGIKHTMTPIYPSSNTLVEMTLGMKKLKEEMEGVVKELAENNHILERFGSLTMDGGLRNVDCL

Assay [7] deals with TTBK1 (Homo sapiens, UniProt Q5TCY1).
The target of assay [8] is T3, PRAK (Homo sapiens, UniProt Q8IW41).
T3 sequence (Q8IW41 1-473): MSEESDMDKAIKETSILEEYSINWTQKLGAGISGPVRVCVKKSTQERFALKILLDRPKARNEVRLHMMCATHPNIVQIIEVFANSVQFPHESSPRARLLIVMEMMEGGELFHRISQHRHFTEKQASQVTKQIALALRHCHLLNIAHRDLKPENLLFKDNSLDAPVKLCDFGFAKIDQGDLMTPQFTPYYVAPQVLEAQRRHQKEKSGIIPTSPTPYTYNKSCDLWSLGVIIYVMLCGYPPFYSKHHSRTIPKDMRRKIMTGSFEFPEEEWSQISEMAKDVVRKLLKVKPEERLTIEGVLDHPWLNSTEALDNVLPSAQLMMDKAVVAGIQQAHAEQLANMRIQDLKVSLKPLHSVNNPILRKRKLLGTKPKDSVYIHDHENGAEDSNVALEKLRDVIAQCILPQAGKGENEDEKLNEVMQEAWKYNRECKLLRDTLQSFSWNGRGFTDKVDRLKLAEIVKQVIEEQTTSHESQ

By remaining activity is commonly meant the signal under treatment as a percentage of the control signal.

Where two headings read alike, the source gives them in different places.

Chain of PDGFRA (P16234 24-1089): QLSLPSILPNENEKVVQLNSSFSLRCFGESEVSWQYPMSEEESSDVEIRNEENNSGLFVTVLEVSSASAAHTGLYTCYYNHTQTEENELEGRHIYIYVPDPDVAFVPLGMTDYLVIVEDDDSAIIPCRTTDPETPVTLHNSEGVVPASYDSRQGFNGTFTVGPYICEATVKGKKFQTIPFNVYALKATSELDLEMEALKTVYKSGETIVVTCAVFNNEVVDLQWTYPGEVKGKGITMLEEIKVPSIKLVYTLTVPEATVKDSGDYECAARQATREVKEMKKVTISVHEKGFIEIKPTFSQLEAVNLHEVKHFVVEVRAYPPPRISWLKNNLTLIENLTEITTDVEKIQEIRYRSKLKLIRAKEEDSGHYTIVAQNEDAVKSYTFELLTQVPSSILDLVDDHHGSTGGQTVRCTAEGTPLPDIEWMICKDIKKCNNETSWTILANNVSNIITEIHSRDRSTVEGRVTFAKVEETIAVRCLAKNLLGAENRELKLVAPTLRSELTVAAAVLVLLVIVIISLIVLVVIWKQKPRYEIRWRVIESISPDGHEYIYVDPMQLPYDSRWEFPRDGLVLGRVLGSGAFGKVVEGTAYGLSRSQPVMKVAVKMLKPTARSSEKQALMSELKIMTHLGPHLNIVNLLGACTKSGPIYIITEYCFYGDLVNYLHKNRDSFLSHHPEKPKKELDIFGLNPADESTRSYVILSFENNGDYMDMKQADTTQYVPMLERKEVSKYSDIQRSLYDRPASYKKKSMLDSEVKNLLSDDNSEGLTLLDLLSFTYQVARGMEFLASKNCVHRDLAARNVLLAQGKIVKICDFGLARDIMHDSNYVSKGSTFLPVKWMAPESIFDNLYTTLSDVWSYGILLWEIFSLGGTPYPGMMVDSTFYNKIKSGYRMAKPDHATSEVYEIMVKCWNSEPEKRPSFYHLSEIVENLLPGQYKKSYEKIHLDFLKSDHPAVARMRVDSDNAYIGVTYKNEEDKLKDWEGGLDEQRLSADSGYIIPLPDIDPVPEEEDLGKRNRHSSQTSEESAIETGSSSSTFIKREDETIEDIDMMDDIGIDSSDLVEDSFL
Chain of PIM1 (P11309 whole entry): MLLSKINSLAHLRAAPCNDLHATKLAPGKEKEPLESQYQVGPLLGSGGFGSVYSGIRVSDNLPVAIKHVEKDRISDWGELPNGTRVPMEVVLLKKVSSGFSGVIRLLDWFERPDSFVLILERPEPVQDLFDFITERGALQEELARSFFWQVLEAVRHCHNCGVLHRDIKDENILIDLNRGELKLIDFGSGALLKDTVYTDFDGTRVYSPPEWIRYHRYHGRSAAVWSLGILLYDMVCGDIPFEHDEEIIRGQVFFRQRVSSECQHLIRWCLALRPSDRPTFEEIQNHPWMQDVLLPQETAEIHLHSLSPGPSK
Chain of ERK1 (P27361 whole entry, species assumed): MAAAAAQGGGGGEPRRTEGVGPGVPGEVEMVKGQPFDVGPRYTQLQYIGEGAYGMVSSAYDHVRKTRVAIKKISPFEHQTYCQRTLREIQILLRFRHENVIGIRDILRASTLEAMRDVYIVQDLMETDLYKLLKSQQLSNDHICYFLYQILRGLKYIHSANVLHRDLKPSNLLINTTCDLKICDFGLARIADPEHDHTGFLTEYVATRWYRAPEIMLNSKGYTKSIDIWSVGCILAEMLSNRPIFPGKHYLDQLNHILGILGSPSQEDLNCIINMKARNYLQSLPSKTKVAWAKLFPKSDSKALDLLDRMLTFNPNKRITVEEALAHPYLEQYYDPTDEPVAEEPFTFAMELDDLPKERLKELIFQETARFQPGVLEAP
Chain of TTBK1 (Q5TCY1 whole entry): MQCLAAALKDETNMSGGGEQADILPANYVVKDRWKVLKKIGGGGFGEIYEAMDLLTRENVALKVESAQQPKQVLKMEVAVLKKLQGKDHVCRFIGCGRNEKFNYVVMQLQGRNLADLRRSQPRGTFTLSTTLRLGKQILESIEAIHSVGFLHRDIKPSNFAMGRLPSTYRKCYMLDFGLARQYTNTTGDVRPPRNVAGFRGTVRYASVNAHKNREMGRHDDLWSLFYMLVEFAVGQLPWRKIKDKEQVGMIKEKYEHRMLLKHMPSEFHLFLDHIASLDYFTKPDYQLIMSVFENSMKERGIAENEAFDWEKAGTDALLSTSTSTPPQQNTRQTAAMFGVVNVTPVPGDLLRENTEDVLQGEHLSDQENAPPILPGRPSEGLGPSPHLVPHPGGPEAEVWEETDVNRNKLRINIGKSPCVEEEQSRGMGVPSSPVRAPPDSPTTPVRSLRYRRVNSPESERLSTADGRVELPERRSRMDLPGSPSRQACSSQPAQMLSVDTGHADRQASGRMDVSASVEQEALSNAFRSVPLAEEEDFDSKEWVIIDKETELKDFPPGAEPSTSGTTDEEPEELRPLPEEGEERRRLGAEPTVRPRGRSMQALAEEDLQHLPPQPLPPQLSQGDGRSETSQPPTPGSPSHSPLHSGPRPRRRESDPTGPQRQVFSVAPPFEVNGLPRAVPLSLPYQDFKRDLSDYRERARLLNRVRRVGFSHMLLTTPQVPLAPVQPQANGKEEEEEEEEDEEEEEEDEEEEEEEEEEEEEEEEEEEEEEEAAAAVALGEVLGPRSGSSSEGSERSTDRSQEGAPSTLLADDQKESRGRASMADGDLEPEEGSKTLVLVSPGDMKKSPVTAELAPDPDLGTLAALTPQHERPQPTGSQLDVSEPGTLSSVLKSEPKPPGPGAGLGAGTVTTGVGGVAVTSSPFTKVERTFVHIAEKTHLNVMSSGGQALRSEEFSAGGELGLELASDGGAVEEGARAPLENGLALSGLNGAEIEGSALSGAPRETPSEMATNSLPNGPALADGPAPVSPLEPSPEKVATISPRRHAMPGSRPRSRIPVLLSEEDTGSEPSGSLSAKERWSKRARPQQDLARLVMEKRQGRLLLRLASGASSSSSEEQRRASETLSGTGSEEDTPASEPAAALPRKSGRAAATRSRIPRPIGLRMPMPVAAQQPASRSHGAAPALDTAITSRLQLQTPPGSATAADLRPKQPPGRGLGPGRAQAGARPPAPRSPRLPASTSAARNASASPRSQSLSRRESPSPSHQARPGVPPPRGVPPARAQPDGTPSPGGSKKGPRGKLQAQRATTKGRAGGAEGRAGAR

Consider `COc1ccc2sc(-c3cncc(N)c3)nc2c1` [compound 1, 5-(5-Methoxybenzo[d]thiazol-2-yl)pyridin-3-amine], for which the remaining activity at 1 µM in assay [1] (PIM1, 1 μM) was determined as 87%; in assay [2] (PDGFRA, 1 μM) it was 101%; in assay [3] (PKD1, 1 μM) it was 94%; in assay [4] (ERK1, 1 μM) it was 99%; in assay [5] (PKCa, 1 μM), 110%; in assay [6] (TBK1, 1 μM), 105%. Moreover, the remaining activity at 1 µM in assay [7] (TTBK1, 1 μM) stood at 109%; in assay [8] (PRAK, 1 μM), 128%. Further, the remaining activity at 100 µM in assay [1] (PIM1, 100 μM) was found to be 24%; in assay [2] (PDGFRA, 100 μM) it was 26%; in assay [3] (PKD1, 100 μM) it was 23%; in assay [4] (ERK1, 100 μM), 81%; in assay [5] (PKCa, 100 μM), 63%; in assay [6] (TBK1, 100 μM), 60%. Further, the remaining activity at 100 µM in assay [7] (TTBK1) stood at 90%; in assay [8] (PRAK, 100 μM), 36%.
Consider `COc1ccc2sc(-c3cncc(NC(C)=O)c3)nc2c1` [PST-001, N-(5-(5-Methoxybenzo[d]thiazol-2-yl)pyridin-3-yl)acetamide], for which the remaining activity at 1 µM in assay [1] amounted to 98%; in assay [2], 100%; in assay [3] it was 103%; in assay [4], 109%; in assay [5], 119%; in assay [6] it was 119%. Besides, the remaining activity at 1 µM in assay [7] turned out to be 109%; in assay [8], 114%. Moreover, the remaining activity at 100 µM in assay [1] worked out at 32%; in assay [2], 73%; in assay [3], 92%; in assay [4] it was 108%; in assay [5] it was 85%; in assay [6], 104%. Besides, the remaining activity at 100 µM in assay [7] (TTBK1) came out at 110%; in assay [8], 116%.
